Patent US8592417B2, “2-substituted-6-heterocyclic pyrimidone derivatives as tau protein kinase 1 inhibitors” (Mitsubishi Tanabe Pharma Corporation, priority 2006, dated 2013)

Biological target: T1, bovine cerebral TPK1 (Bos taurus, UniProt A0A3Q1MT31)
T1 construct: bovine cerebral TPK1; from tissue; host or cells: bovine brain (cerebrum)
Test: Inhibitory activity against P-GS1 phosphorylation by bovine cerebral TPK1
Assay type: biochemical
Conditions: 41.7 μM [γ-32P] ATP, 25° C. for 2 hours
Experimental: Inhibitory Activity of the Medicament of the Present Invention Against P-GS1 Phosphorylation by Bovine Cerebral TPK1
A mixture containing 100 mM MES-sodium hydroxide (pH 6.5), 1 mM magnesium acetate, 0.5 mM EGTA, 5 mM β-mercaptoethanol, 0.02% Tween 20, 10% glycerol, 12 μg/ml P-GS1, 41.7 μM [γ^−32P] ATP (68 kBq/ml), bovine cerebral TPK1 and a compound shown in Table (a final mixture contained 1.7% DMSO deriving from a solution of a test compound prepared in the presence of 10% DMSO) was used as a reaction system. The phosphorylation was started by adding ATP, and the reaction was conducted at 25° C. for 2 hours, and then stopped by adding 21% perchloric acid on ice cooling. The reaction mixture was centrifuged at 12,000 rpm for 5 minutes and adsorbed on P81 paper (Whatmann), and then the paper was washed four times with 75 mM phosphoric acid, three times with water and once with acetone. The paper was dried, and the residual radioactivity was measured using a liquid scintillation counter.

T1 sequence (A0A3Q1MT31 1-419): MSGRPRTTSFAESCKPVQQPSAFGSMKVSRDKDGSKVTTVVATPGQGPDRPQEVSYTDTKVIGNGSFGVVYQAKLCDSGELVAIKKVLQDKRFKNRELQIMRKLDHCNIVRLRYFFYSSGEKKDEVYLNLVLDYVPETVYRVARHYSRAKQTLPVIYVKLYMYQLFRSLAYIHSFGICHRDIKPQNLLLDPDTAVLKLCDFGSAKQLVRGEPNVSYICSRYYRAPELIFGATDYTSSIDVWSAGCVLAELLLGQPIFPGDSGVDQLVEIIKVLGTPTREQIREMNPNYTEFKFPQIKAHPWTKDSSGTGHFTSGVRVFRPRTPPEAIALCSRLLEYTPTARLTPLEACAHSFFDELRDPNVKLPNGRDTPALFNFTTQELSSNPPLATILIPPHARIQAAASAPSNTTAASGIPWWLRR

Work on `O=c1cc(-c2ccncn2)nc(N2CCO[C@@H](c3ccc(F)cc3)C2)[nH]1` [Compound 2, 2-[(2S)-2-(4-Fluorophenyl)morpholin-4-yl]-1H-[4,4′]bipyrimidinyl-6-one] yielded an IC50 of 86.3 nM.

Molecule `O=c1cc(-c2ccncc2F)nc(N2CCO[C@@H](c3ccc(F)cc3)C2)[nH]1` [Compound 3, 2-[(2S)-2-(4-Fluoro-phenyl)-morpholin-4-yl]-6-(3-fluoro-pyridin-4-yl)-3H-pyrimidin-4-one] has an IC50 of 59.8 nM.
